The test system of the test is M. mycetomatis genome strain MM55. As to the kind of experiment: CLSI M38-A2 based in vitro susceptibility screening (XTT or resazurin), growth at fixed concentration. The conditions noted are these: Madurella mycetomatis; for Percent fungal survival at 100 µM: read-out: Percentage survival at 100um, 100 uM A (second replicate column). In kind it is cell-based, Madurella mycetomatis. Background: Tetrazolium assays rely on reduction of a dye to a coloured formazan, in cell work by metabolically active cells.

Setting [1] is: mean, read-out: Percentage survival at 25um, 25 uM mean.
Where [2] appears, read: replicate A, read-out: Percentage survival at 25um, 25 um A.
The mark [3] stands for this setting: replicate B, read-out: Percentage survival at 25um, 25 uM B.
[4] abbreviates: replicate C, read-out: Percentage survival at 25um, 25 uM C.
Setting [5] is: mean, read-out: Percentage survival at 100um, 100 uM mean.
The mark [6] stands for this setting: replicate (first column), read-out: Percentage survival at 100um, 100 uM A.
[7] abbreviates: replicate (second column), read-out: Percentage survival at 100um, 100 uM A.
[8] abbreviates: replicate (third column), read-out: Percentage survival at 100um, 100 uM A.
Where [9] appears, read: mean of three replicates, read-out: Percentage survival at 25um, 25 uM mean.
Where [10] appears, read: mean of three replicates, read-out: Percentage survival at 100um, 100 uM mean.
The mark [11] stands for this setting: replicate 1, read-out: Percentage survival at 100um, 100 uM A (first replicate column).
Where [12] appears, read: replicate 3, read-out: Percentage survival at 100um, 100 uM A (third replicate column).
Where [13] appears, read: mean of replicates, read-out: Percentage survival at 25um, 25 uM mean.
Where [14] appears, read: mean of replicates, read-out: Percentage survival at 100um, 100 uM mean.
[15] abbreviates: replicate 1, read-out: Percentage survival at 100um, 100 uM A.
Setting [16] is: replicate 2, read-out: Percentage survival at 100um, 100 uM A.
[17] abbreviates: replicate 3, read-out: Percentage survival at 100um, 100 uM A.
The mark [18] stands for this setting: first replicate column, read-out: Percentage survival at 100um, 100 uM A.
[19] abbreviates: second replicate column, read-out: Percentage survival at 100um, 100 uM A.
[20] abbreviates: third replicate column, read-out: Percentage survival at 100um, 100 uM A.

Where two headings read alike, the source gives them in different places.

Here are results for 16 compounds from paper PMC8815882, “Screening the pandemic response box identified benzimidazole carbamates, Olorofim and ravuconazole as promising drug candidates for the treatment of eumycetoma” (PLoS Neglected Tropical Diseases, 2022).

Regarding `C[C@@H](O)[C@H](N)C(=O)NS(=O)(=O)c1cccc(-c2ccc3[nH]ncc3c2)c1` [MMV1582494], the activity at 25 µM is, setting by setting: under setting [1], 82.4%; under setting [2], 91.3%; under setting [3], 83.3%; under setting [4], 72.6%. For the same compound, the activity at 100 µM amounted to 79.4% under setting [5], 99.3% under setting [6], 66.8% under setting [7] and 72.1% under setting [8].

`Cc1cc(C2CCCCC2)n(O)c(=O)c1` [MMV002731]: the activity at 25 µM is, setting by setting: under setting [1], 32%; under setting [2], -3.44%; under setting [3], 96.3%; under setting [4], 3.22%. Besides, the activity at 100 µM under setting [5] was found to be 5.09%, the activity at 100 µM under setting [6] is -2.39%, the activity at 100 µM under setting [7] stood at 6.16% and the activity at 100 µM under setting [8] came out at 11.5%.

Regarding `NC(=O)c1cnccn1` [MMV003249], the activity at 25 µM is, setting by setting: under setting [9], 83.1%; under setting [2], 89.2%; under setting [3], 75.7%; under setting [4], 84.4%. Also, the activity at 100 µM by setting is: under setting [10], 60%; under setting [11], 53.7%; under setting [12], 56.3%. In addition, the Percent fungal survival at 100 µM (replicate 2) is 70%.

As to `CCOC(=O)/C=C/[C@H](C[C@@H]1CCNC1=O)NC(=O)[C@@H](CC(=O)[C@@H](NC(=O)c1cc(C)on1)C(C)C)Cc1ccc(F)cc1` [MMV1580491], the activity at 25 µM under setting [9] turned out to be 96.1%, the activity at 25 µM under setting [2] turned out to be 96.2%, the activity at 25 µM under setting [3] was 112% and the activity at 25 µM under setting [4] stood at 79.9%. Moreover, the activity at 100 µM worked out at 93.9% under setting [10], 99.7% under setting [11] and 95.4% under setting [12]. Also, the Percent fungal survival at 100 µM (replicate 2) was determined as 86.7%.

`Nc1cccc(-c2nc(N)nc(NC3Cc4ccccc4C3)n2)c1` [MMV1581555]: the activity at 25 µM stood at 86% under setting [13], 98.9% under setting [2], 85.3% under setting [3] and 73.8% under setting [4]. Further, the activity at 100 µM came to 85.5% under setting [14], 81.1% under setting [15], 89% under setting [16] and 86.6% under setting [17].

Take `COc1ccc2nc(-c3ccccc3)cc(O)c2c1` [MMV011565]: the activity at 25 µM by setting is: under setting [9], 93.4%; under setting [2], 91.4%; under setting [3], 96.2%; under setting [4], 92.7%. Also, the activity at 100 µM amounted to 78.1% under setting [10], 74.5% under setting [11] and 79.6% under setting [12]. Further, the Percent fungal survival at 100 µM (replicate 2) came to 80.2%.

On to `COc1ccc(C)cc1NC(=O)c1ccc(S(=O)(=O)N2CCCCC2)cc1` [MMV1578579], for which the activity at 25 µM runs as follows: (mean of three, M. mycetomatis MM55, read-out: Percentage survival at 25um, 25 uM mean) 72.2%; (replicate A, M. mycetomatis MM55, read-out: Percentage survival at 25um, 25 um A) 96.4%; (replicate B, M. mycetomatis MM55, read-out: Percentage survival at 25um, 25 uM B) 63%; (replicate C, M. mycetomatis MM55, read-out: Percentage survival at 25um, 25 uM C) 57.3%. Also, the activity at 100 µM is 71.4% (mean of three, M. mycetomatis MM55, read-out: Percentage survival at 100um, 100 uM mean); 69.7% (replicate 1, M. mycetomatis MM55, read-out: Percentage survival at 100um, 100 uM A (first replicate column)); 67.5% (replicate 3, M. mycetomatis MM55, read-out: Percentage survival at 100um, 100 uM A (third replicate column)). Besides, for the setting “replicate 2, M. mycetomatis MM55”, the Percent fungal survival at 100 µM was found to be 77.1%.

On to `COc1cc(C(C)(C)CCCC(C)C)cc(OC)c1OC` [MMV1782102], for which the activity at 25 µM is 78.4% under setting [9], 88.5% under setting [2], 83% under setting [3] and 63.5% under setting [4]. For the same compound, the activity at 100 µM is, setting by setting: under setting [18], 90.3%; under setting [10], 83.9%; under setting [19], 86%; under setting [20], 75.5%.

In the case of `CCCCSc1nc(N)c2[nH]c(=O)c(=O)n(Cc3ccccc3)c2n1` [MMV1579783], the activity at 25 µM under setting [1] is 74.7%, the activity at 25 µM under setting [2] is 95.5%, the activity at 25 µM under setting [3] turned out to be 58.6% and the activity at 25 µM under setting [4] was found to be 70%. Besides, the activity at 100 µM reads like this: under setting [5], 54.9%; under setting [6], 84%; under setting [7], 5.11%; under setting [8], 75.6%.

Turning to `O=C(O)CCNC(=O)c1ccccc1` [MMV002224], the activity at 25 µM is, setting by setting: under setting [13], 93.9%; under setting [2], 90.2%; under setting [3], 96.2%; under setting [4], 95.4%. Also, the activity at 100 µM under setting [14] was 89.7%, the activity at 100 µM under setting [15] is 96%, the activity at 100 µM under setting [16] came out at 83.6% and the activity at 100 µM under setting [17] turned out to be 89.5%.

As to `OB1OCc2cc(Cl)ccc21` [MMV1634363], the activity at 25 µM runs as follows: under setting [1], 33.1%; under setting [2], 51.2%; under setting [3], -4.3%; under setting [4], 52.5%. Moreover, the activity at 100 µM is 61.8% under setting [5], 40.7% under setting [6], 85.6% under setting [7] and 59.1% under setting [8].

As to `CCOC(=O)N[C@@H]1CC[C@@H]2[C@@H](C1)C[C@H]1C(=O)O[C@H](C)[C@H]1[C@H]2/C=C/c1ccc(-c2cccc(F)c2)cn1` [MMV1593515], the activity at 25 µM is, setting by setting: under setting [9], 69.2%; under setting [2], 68.2%; under setting [3], 80.3%; under setting [4], 59.1%. The activity at 100 µM under setting [10] amounted to 72.9%, the activity at 100 µM under setting [11] is 71.5% and the activity at 100 µM under setting [12] was 82%. Besides, the Percent fungal survival at 100 µM (replicate 2) was found to be 65.2%.

As to `CN1C(=O)C(c2ccccc2)C(=O)N(c2ccccc2)c2cc(C(F)(F)F)ccc21` (centres unmarked) [MMV1782208], the activity at 25 µM (mean of replicates, MM55, read-out: Percentage survival at 25um, 25 uM mean) worked out at 99.7%; the activity at 25 µM (replicate A, MM55, read-out: Percentage survival at 25um, 25 um A) was determined as 120%; the activity at 25 µM (replicate B, MM55, read-out: Percentage survival at 25um, 25 uM B) is 99.1%; the activity at 25 µM (replicate C, MM55, read-out: Percentage survival at 25um, 25 uM C) was found to be 80.3%. Moreover, the activity at 100 µM amounted to 90.1% (mean of replicates, MM55, read-out: Percentage survival at 100um, 100 uM mean); 94.2% (replicate 1, MM55, read-out: Percentage survival at 100um, 100 uM A); 97.9% (replicate 2, MM55, read-out: Percentage survival at 100um, 100 uM A); 78.1% (replicate 3, MM55, read-out: Percentage survival at 100um, 100 uM A).

`O=C1C=C(c2ccccc2)S(=O)(=O)c2ccccc21` [MMV1006203]: the activity at 25 µM runs as follows: under setting [13], 65%; under setting [2], 59.6%; under setting [3], 126%; under setting [4], 9.78%. Moreover, the activity at 100 µM by setting is: under setting [14], 26.1%; under setting [11], 63.3%; under setting [12], 10.9%. Moreover, under “replicate 2”, the Percent fungal survival at 100 µM was 4.04%.

For `Nc1nc(=O)c(Br)c(-c2cccc(Cl)c2)[nH]1` [MMV1645152], the activity at 25 µM worked out at 84.5% under setting [9], 79.7% under setting [2], 91.3% under setting [3] and 82.6% under setting [4]. Further, the activity at 100 µM runs as follows: under setting [18], 87.5%; under setting [10], 75.8%; under setting [19], 77.5%; under setting [20], 62.2%.

Regarding `CO/N=C(\C(=O)N[C@@H]1C(=O)N2C(C(=O)OCOC(=O)C(C)(C)C)=C(/C=C\c3scnc3C)CS[C@H]12)c1csc(N)n1` [MMV002560], the activity at 25 µM is, setting by setting: under setting [13], 117%; under setting [2], 84.9%; under setting [3], 78.8%; under setting [4], 186%. The activity at 100 µM runs as follows: under setting [14], 77.5%; under setting [15], 72.7%; under setting [16], 83.7%; under setting [17], 76%.
